According to patent publication US20100063085A1, “METHOD OF TREATING LEARNING IMPAIRMENT IN DOWN'S SYNDROME SUBJECTS” (University Court of The University of Dundee, priority 2008, published 2010):
Read-outs that look alike come from different tables or passages of the source.

Legend:
Type in all cases: biochemical
PKCa = PKCa (Homo sapiens, UniProt P17252); assay: PKCa 33P kinase assay; details: read-out: PKCa activity as percentage of control without inhibitor; for remaining activity at 1 µM: inhibitor 1 μM; for remaining activity at 10 µM: inhibitor 10 μM
Description: (§1) All assays (25.5 μl) were carried out at room temperature (21° C.) and were linear with respect to time and enzyme concentrations under the conditions used. Assays were performed for 30 minutes except assays for LCK and PKB which were performed for 15 minutes using Multidrop Micro reagent dispensers (Thermo Electron Corporation, Waltham, Mass. 02454, USA) in a 96-well format. The concentration of […] [γ-^33P] ATP (800 cpm/pmol) in the assays was one of three concentrations (5, 20 or 50 μM) in order to be at or below Km for ATP for the enzyme. Assays were initiated with MgATP and stopped by addition of 5 μl of 0.5M orthophosphoric acid. Assays were then harvested onto P81 filterplates using a unifilter harvester (PerkinElmer, Boston, Mass. 02118, USA), with a wash buffer of 50 mM orthophosphoric acid. Filterplates were then air dried overnight. 10 μl of Microscint O was added per well prior to counting for radioactivity.
MKK1, JNK/SAPK1c, SAPK2a/p38, SAPK2b/p38β2, SAPK3/p38γ, SAPK4/p38δ, MAPK2/ERK2, MAPKAP-K1β, MAPKAP-K2, MSK1, PRAK, PKA, PKCα, PDK1, SGK, p70S6K, GSK3β, ROCK-II, PRK2, AMPK, CHK1, CHK2, CK2, PHK, LCK, were assayed according to Davies et al., (Davies, S. P., Reddy, H., Caivano, M. and Cohen, P. Biochem. J. 351, 95-105, 2000.
CSK and CDK2/cyclinA, were assayed according to Bain et al. (Bain J, McLauchlan H, Elliott M, Cohen P. Biochem J. 371, 199-204, 2003., except that ATP concentrations were either 5, 20 or 50 micromolar so that they were at or below the Km for ATP. The ATP concentrations used were as follows, 5 μM for assays of MKK1, SAPK3, SAPK4, GSK3β, PRK2 CK2 20 μm for assays of JNK, SAPK2β, MAPKAP-K2, MSK1, PRAK, PKA, […], PDK1, SGK, p70S6K, ROCK-II, CHK1, CHK2, CSK, CDK2, and 50 μM for assays of SAPK2a, MAPK2/ERK2, AMPK, LCK, PHK and MAPKAP-K1β.

PIM2 = PIM2 (Homo sapiens, UniProt Q9P1W9); assay: PIM2 33P kinase assay; details: read-out: PIM2 activity as percentage of control without inhibitor
Sequence of PIM2 (Q9P1W9 whole entry, species assumed): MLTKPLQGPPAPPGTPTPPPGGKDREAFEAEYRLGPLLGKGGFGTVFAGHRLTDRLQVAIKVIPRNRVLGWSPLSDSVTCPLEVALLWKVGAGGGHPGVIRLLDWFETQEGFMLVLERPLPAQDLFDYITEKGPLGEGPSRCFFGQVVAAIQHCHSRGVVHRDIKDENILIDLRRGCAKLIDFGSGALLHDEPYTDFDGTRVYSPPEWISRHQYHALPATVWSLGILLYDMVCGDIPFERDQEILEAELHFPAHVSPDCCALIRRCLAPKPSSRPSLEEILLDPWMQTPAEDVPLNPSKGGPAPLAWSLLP
Description: as §1
The following kinases were assayed against the substrates indicated. Aurora B was assayed against the substrate peptide […] (300 μM), ERK8 and MST-2 were both assayed against MBP (0.33 mg/ml). IKKβ was assayed against the substrate peptide […] (300 μM), JNK3 was assayed against 3 μM ATF2[19-96]. MAPKAP-K3 and PKD1 were both assayed against […] (30 μM), MARK3 was assayed against CHKtide ([…]) substrate peptide (300 μM). MNK1 and MNK2 were both assayed against eIF4E protein (0.5 mg/ml). NEK7 was assayed against […] (300 μM), PIM2 was assayed against […] (300 μM), ΔPH PKBβ-S474D was assayed against Crosstide (30 μM), PLK1 was assayed against […] (300 μM). PRK2 was assayed against Long S6 peptide, […] (30 μM), RSK2 was assayed against […] (30 μM), SRC was assayed against cdc2 peptide, […], (300 μM) and SRPK1 was assayed against peptide […] (300 μM). All enzymes were diluted in 50 mM Tris/HCl pH 7.5, 0.1 mM EGTA, 1 mg/ml BSA, 0.1% β-mercaptoethanol buffer and assayed in an incubation containing 50 mM Tris/HCl pH7.5, 0.1 mM EGTA, 0.1% β-mercaptoethanol, CAMK-1 (5-20 mU) diluted in 50 mM Tris/HCl pH 7.5, 0.1 mM EGTA, 1 mg/ml BSA, 0.1% β-mercaptoethanol is assayed against substrate peptide […] in an incubation containing 50 mM Tris/HCl pH 7.5, 0.1 mM EGTA, 0.5 mM CaCl2, 0.3 μM calmodulin, 0.1% β-mereaptoethanol, 300 μM substrate peptide, 10 mM magnesium acetate and 0.05 mM [^33P-γ-ATP] (500-1000 cpm/pmole). EF2K (5-20 mU) diluted in 50 mM Hepes pH 6.6, 0.1% β-mercaptoethanol, 1 mg/ml BSA is assayed against a substrate peptide […] in an incubation containing 50 mM Hepes pH 6.6, 0.2 mM CaCl2, 0.3 μM Calmodulin, 0.05% b-mercaptoethanol, 300 μM substrate peptide, 10 mM magnesium acetate and 0.05 mM [^33P-γ-ATP] (500-1000 cpm/pmole).

DYRK2 = DYRK2 (Homo sapiens, UniProt Q92630); assay: DYRK2 33P kinase assay (analogous to DYRK1a); details: ATP at 50 μM; half log dilutions starting at 100 μM
Sequence of DYRK2 (Q92630 whole entry, species assumed): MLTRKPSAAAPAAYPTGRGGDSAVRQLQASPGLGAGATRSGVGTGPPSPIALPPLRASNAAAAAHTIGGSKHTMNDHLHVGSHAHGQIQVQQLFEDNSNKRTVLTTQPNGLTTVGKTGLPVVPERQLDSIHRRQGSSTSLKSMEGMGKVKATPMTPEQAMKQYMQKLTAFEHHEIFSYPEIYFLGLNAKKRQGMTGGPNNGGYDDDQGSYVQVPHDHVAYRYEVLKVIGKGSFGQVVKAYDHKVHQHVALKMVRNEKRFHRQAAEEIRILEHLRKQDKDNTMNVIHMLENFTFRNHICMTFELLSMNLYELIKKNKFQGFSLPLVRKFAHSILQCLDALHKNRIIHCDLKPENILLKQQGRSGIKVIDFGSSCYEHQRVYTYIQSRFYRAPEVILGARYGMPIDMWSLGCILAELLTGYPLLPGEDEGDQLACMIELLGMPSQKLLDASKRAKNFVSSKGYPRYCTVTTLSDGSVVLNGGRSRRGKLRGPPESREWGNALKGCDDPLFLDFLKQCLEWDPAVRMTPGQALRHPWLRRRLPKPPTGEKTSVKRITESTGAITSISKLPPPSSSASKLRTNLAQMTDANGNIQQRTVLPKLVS
Description: (§2) DYRK1A (5-20 mU of diluted in 50 mM Tris pH 7.5, 0.1 mM EGTA) was assayed against Woodtide ([…]) in a final volume of 25.5 μl containing 50 mM Tris pH 7.5, 0.1 mM EGTA, 350 uM substrate peptide, 10 mM magnesium acetate and 0.5 μl inhibitor and incubated at room temperature for 5 mins, followed by the addition of 0.05 mM [33P-gamma-ATP] (50-1000 cpm/pmole) and incubated for 30 mins at room temperature. Assays were stopped by addition of 5 μl of 0.5 M (3%) orthophosphoric acid then harvested onto P81 Unifilter plates with a wash buffer of 50 mM orthophosphoric acid. Filterplates were then air dried overnight. 10 μl of Microscint O was added per well prior to counting for radioactivity.
DYR2 and DYRK3 were assayed in an analogous manner to that described above for DYRK1a.

DYRK3 = DYRK3 (Homo sapiens, UniProt O43781); assay: DYRK3 33P kinase assay (analogous to DYRK1a); details: ATP at 50 μM; half log dilutions starting at 100 μM
Sequence of DYRK3 (O43781 whole entry, species assumed): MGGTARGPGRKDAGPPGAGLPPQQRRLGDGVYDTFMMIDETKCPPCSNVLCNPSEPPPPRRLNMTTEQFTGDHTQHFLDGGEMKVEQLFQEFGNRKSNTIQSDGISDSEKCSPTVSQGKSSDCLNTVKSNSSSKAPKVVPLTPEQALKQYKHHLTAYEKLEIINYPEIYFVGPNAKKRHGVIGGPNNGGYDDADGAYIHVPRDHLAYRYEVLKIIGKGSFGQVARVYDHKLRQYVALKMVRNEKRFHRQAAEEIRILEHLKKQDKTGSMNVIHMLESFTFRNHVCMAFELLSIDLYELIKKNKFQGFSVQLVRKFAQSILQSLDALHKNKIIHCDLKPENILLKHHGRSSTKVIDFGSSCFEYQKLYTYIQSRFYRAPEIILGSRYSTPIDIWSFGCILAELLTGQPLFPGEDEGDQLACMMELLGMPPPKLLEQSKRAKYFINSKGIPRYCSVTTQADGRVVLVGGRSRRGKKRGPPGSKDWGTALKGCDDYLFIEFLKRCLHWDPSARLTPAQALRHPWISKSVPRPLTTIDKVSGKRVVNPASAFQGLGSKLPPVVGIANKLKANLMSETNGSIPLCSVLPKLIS
Description: as §2

Structure (SMILES)	remaining activity at 1 µM (PKCa) [%]	remaining activity at 10 µM (PKCa) [%]	remaining activity at 1 µM (PIM2; inhibitor 1 μM) [%]	remaining activity at 10 µM (PIM2; inhibitor 10 μM) [%]	remaining activity at 1 µM (PIM2) [%]	remaining activity at 10 µM (PIM2) [%]	IC50 (DYRK2) [nM]	IC50 (DYRK3) [nM]
COc1ccc2c3c([nH]c2c1)C(C)=NCC3 [Harmaline]	88	81	86	101	–	–	–	–
CC1=NCCc2c1[nH]c1cc(O)ccc21 [Harmalol]	109	78	90	57	–	–	–	–
COc1ccc2c(c1)[nH]c1c(C)nccc12 [Harmine]	96	101	–	–	77	41	900	800
